From US20260076937A1, “COMPOSITION FOR PREVENTING OR TREATING AUTOIMMUNE DISEASES COMPRISING A BCAT1 INHIBITOR” (Seoul National University R&DB Foundation, priority 2024, published 2026)
“Also recorded” adds a separate entry of the source.

Assays:
[1] = tested on: TCR-stimulated human CD4+ memory T cells; assay: Cytokine ELISA of culture supernatants, CD4+ memory T cells; type: cell-based
Description: The study protocol was reviewed and approved by the Institutional Review Board (IRB) of Seoul National University Hospital. Peripheral blood was drawn from healthy controls (HC) after obtaining written consent from study participants, and all experiments were performed according to approved guidelines. Peripheral blood mononuclear cells (PBMCs) were isolated from peripheral blood using density gradient centrifugation (Biocoll separation solution; BIOCHROM Inc., Cambridge, UK). Total CD4^+ T cells, naive T cells and memory CD4^+ T-cells were isolated in a negative selection manner from CD14^+ monocyte depleted PBMCs using the MojoSort™ Human Total CD4^+ T-Cells, CD4^+ naive T-cells and CD4^+ memory T-cell isolation kit (BioLegend, San Diego, Calif.). Purified T cells were cultured in RPMI 1640 medium (hereinafter, “complete RPMI 1640”) supplemented with 10% fetal bovine serum (FBS), 1% penicillin/streptomycin, and 1% L-glutamine. Cells were stimulated with anti-CD3/CD28-coated microbeads (1:10 ratio, Dynabeads T-Activator CD3/CD28, Thermo Fisher Scientific, Waltham, MA) in the presence of designated chemical inhibitors or reagents including 2-amino-2-norbornanecarboxylic acid (BCH), JPH203, acetate, MG132, VH298, cobalt chloride (CoCl2), cycloheximid (CHX) (all provided by Sigma-Aldrich, St. Louis, MO), BCAT1 inhibitor 2 (Bi2: provided by Cayman Chemical, Ann Arbor, MI), 3-hydroxy-3-methylbutyric acid (HMB; provided by Thermo Fisher Scientific, Waltham, MA), and L-β-homoleucine (LβhL; provided by Santa Cruz Biotechnology, Heidelberg, Germany). In some experiments, a customized medium depleted of five essential amino acids (leucine, valine, isoleucine, phenylalanine, methionine) was used (Welgene, Gyeongsan, South Korea). All amino acids used (L-leucine, L-valine, L-isoleucine, L-phenylalanine, L-methionine) were purchased from Sigma-Aldrich.
IL-17A and IFN-γ amounts in culture supernatants were quantified using commercially available human ELISA kits (IL-17A ELISA kit by eBioscience and human IFN-γ ELISA MAX Deluxe by BioLegend) according to the manufacturer's instructions. Light density was measured using an Infinite M200 instrument (Tecan, Männedorf, Switzerland).

[2] = tested on: human CD4+ memory T cells; assay: Cholesterol analysis in cell lysates; type: cell-based; conditions: TCR stimulation 3 days; Bi2 10 μM, statin 10 μM
Description: Total cholesterol amount in cultured cells was determined using a fluorometric Amplex™ Red Cholesterol Assay Kit (Thermo Fisher Scientific) according to the manufacturer's instructions.

[3] = tested on: human CD4+ memory T cells; assay: scRNA-seq analysis of CD4+ memory T cells; type: cell-based; conditions: Bi2 10 μM
Description: Freshly purified CD4^+ memory T-cells were stimulated for 72 hours with anti-CD3/CD28 coated microbeads in the absence or presence of Bi2. Samples from four different donors were multiplexed for 30 minutes at 4° C. with a hashtag oligo. Totalseq™ anti-human hashtag antibody (Biolegend, USA) was then used to perform in three experimental conditions (TCR-stimulated cells with Bi2, TCR-stimulated cells without Bi2, and cells without TCR stimulation). Tagged cells were pooled and loaded into a Chromium system (10× Genomics, Pleasanton, CA) and encapsulated into a single droplet targeting about 40,000 cells for each GEM (Gel Beads-in-emulsion). Chromium Single Cell 5′ Kit (10× Genomics) was used to generate scRNA-seq and TCR libraries according to the manufacturer's instructions. Demultiplexing and read alignment to the bound human genome was performed using Cell Ranger (v6.1.2).

mouse CD4+ naive T cells = assay: Th17/Th1 polarization of mouse CD4+ naive T cells from iLN; type: cell-based; conditions: Bi2 10 μM
Description: Blocking BCAT1 with Bi2 attenuates Th17 differentiation in mice. In FIG. 13A mRNA expression of slc7a5 and bcat1 in mouse inguinal LN (iLN) cells was analyzed by RT-qPCR at 24 hours after TCR stimulation with anti-CD3/CD28 antibody (n=5). In FIG. 13B protein expression of BCAT1 in mouse inguinal LN cells was analyzed at 24 hours after stimulation of TCR with anti-CD3/CD28 antibody (n=5). In FIGS. 13C to 13D, mouse CD4^+ naive T cells derived from iLN were differentiated under […] or Th1 polarization conditions for 5 days in the presence of Bi2 (10 μM). The amounts of IFN-γ (c) and IL-17A (d) in the culture supernatants of Th1 and Th17 cells (n=5) are shown. In FIG. 13E, the cells of mouse iLN were stimulated with anti CD3/CD28 antibody in the presence of Bi2 (10 μM) for 24 hours. Cell lysates were immunoblotted for HIF-1α (n=3 independent experiments). Cells treated with COCl2 served as a positive control for HIF-1α. […] FIG. 13F is a representative histogram plot of intracellular HIF-1α in cells of mouse iLN. Cells were stimulated with anti CD3/CD28 antibody in the presence of Bi2 (10 μM) for 24 hours. […] The significance was indicated as *=p<0.05, **=p<0.01, ***=p<0.001, according to Mann-Whitney U test (a, c, d, f) or the two-tailed non-pair t test (b, e)).

EAE mice = assay: Experimental autoimmune encephalomyelitis (EAE) model; type: in vivo, mouse
SKG mice = assay: Curdlan-induced arthritis in SKG mice; type: in vivo, mouse
Description: Eight-week-old female SKG mice used for induction of autoimmune arthritis [e.g., Rheumatoid Arthritis (RA)] were purchased from CLEA Japan (Tokyo, Japan). All mice were bred and managed in a sterile facility at Seoul National University School of Medicine. All experiments were approved by Seoul National University Institutional Animal Experimentation Ethics Committee (IACUC) (approval number: SNU-230825-2-2). At 8 weeks of age, 3 mg/mice curdlan (Wako, Japan) in 300 μl sterile PBS was injected intraperitoneally (i.p.) into mice. Ankle thickness was measured using calipers (Manostat, New York, NY). […] 0 point: no joint swelling; 0.1 point: single finger joint swelling; 0.5 point: minor swelling of wrist, ankle or tail base; 1.0 point: severe swelling of […], […] or tail base. Scores for all joints of each mouse were summed. Mice were euthanized at the end of the experiment and immune cells were extracted from inguinal lymph nodes (inguinal LNs) and joint cells.

[4] = Bi2 10 mg/kg or LβhL 1 g/kg i.p.
[5] = Bi2 10 mg/kg or LβhL 1 g/kg i.p., 10 mg/kg
[6] = Bi2 i.p. twice a week for 3 weeks

## O=C(NNS(=O)(=O)c1ccccc1C(F)(F)F)c1cc2cc(Cl)ccc2o1 [Bi2, BCATc inhibitor 2]
[1]
  IL-17A production in CD4+ memory T cells treated with statins: further reduced
[1]; TCR stimulation 3 days, Bi2 10 μM, JPH203 10 μM, HMB 0.4 mM, VH298 100 nM, LβhL 400 mg/L
  IFN-γ production by CD4+ memory T cells: did not affect
[1]; TCR stimulation 3 days, Bi2 10 μM, JPH203 10 μM, statin 10 μM, LβhL 400 mg/L
  IL-17A production by CD4+ memory T cells: preferentially inhibited; also recorded: significantly reduced
[2]
  intracellular cholesterol: slight increase; also recorded: significantly increased
[3]; 72 hours TCR stimulation
  HIF1A expression in activated Th17 cells: down-regulated
  activated Th17 cell population (clusters 8, 13, 15): decreased
[3]; pathway enrichment of DEGs
  T-cell activation, cytokine signaling and cytokine production pathways in activated Th17 subset: decrease
Mouse CD4+ naive T cells; Th1 polarization 5 days
  IFN-γ production: failed to inhibit
Mouse CD4+ naive T cells; Th17 polarization 5 days
  differentiation of Th17 cells (IL-17A): preferentially inhibited; also recorded: attenuates
EAE mice; Bi2 10 mg/kg i.p.
  HIF-1α expression in SCMC (immunoblot): decreased
  absolute number of Th17 cells co-producing IFN-γ/IL-17A: significantly reduced
  absolute number of spinal cord mononuclear cells (SCMC): significantly lower
  proportion of CD4+ T-cells in SCMC: significantly lower
  relative proportion of Th17 cells co-producing IFN-γ/IL-17A: did not change
EAE mice; [4]
  cell infiltration in spinal cord: decrease
  nerve damage, spinal cord histology: decrease
EAE mice; [5]
  CD4+ T-cells producing IL-17A in spinal cord infiltrates and draining LN: preferentially reduced
  HIF-1α expression in CD4+ T-cells of spinal cord (intracellular staining): preferentially in CD4+ T-cells in SCMC but not in CD11b+F4/80+ macrophages; also recorded: reduced
EAE mice; i.p. three times a week for 14 days, Bi2 10 mg/kg, LβhL 1 g/kg, 10 mg/kg
  EAE clinical score / severity: significantly lower; also recorded: alleviating the severity of disease
SKG mice; [6]
  ifng, tgfb1 expression in synovial cells: significantly reduced
  ratio of Th17 cells in CD3+CD4+ T cells in inguinal lymph nodes: significantly reduced
SKG mice; Bi2 i.p. twice a week for 3 weeks after curdlan
  arthritis score: significantly lower; also recorded: alleviates
